Patent publication US20090286831A1, “VR1 Receptor Ligands and u-Opioid Receptor Ligands for the Treatment of Pain” (priority 2006, published 2009)
Like-named read-outs stand apart in the source and are kept apart here. Marks after values point to notes of the source that are not given here.

What was measured:
[1] = system: rats after spinal nerve ligature; experiment: Mono-neuropathic pain after spinal nerve ligature (Chung model), electronic von Frey; format: in vivo, rat
Protocol: Sprague Dawley rats (140-160 g body weight) were used for the following animal models. Sprague Dawley rats (140-160 g body weight) from a commercial breeder (Janvier, Genest St. Isle, France) were used. The animals were kept under standard conditions: light-dark rhythm (06:00 to 18:00 h light, 18:00 to 06:00 h dark), room temperature 19-23° C., relative air humidity 45-65%, air exchange 19 times per hour, air movement <0.2 m/s, free choice of tap water and standard feed, Macrolon Type 4 cages with 5 animals per cage. The solutions of the test substances and/or vehicles (10% […], 5% Cremophor EL, 5% glucose) were administered intravenously.
Under pentobarbital narcosis (Narcoren®, […] i.p., Merial GmbH, Hallbergmoos, Germany), the L5, L6 spinal nerves were firmly bound. The left L5 and L6 spinal nerves were exposed by removing a piece of paravertebral muscle and a portion of the left spinal process of the L5 lumbar vertebral body. The L5 and L6 spinal nerves were carefully isolated and bound with a firm ligature (NC silk, black, USP 5/0, metric 1, Braun Melsungen AG, Melsungen, Germany) (Kim and Chung, An experimental model for peripheral neuropathy produced by segmental spinal nerve ligature in the rat, Pain, 50, 1992, 355-363). After haemostasis was determined, the muscle and adjacent tissue were sutured and the wound closed by metal clamps. After a one-week recovery period the animals were placed in cages with a wire base closed to the top by a plastic hood for measurement of the mechanical allodynia. The animals were kept in this cage until their explorative behaviour had decreased.
The threshold for the tactile allodynia was measured by means of an electronic von Frey anaesthesiometer (Somedic AB, Malmö, Sweden). The animals were randomly divided into groups of 10 animals. Each group received an individual dose of test substance or vehicle and the measurements were conducted 0.5 h before application and at various times after intravenous administration. Both the ipsi- and the contra-lateral rear paw were tested. The median of five stimulations gave a measured data point. The data were determined as % maximum possible effect (% MPE) from the pre-tests of the Chung individual animals (=0% MPE) and the test values of an independent sham control group (=100% MPE). The effect of the test substance and the vehicle was calculated for each measurement time (i.e. 0.5, 1 and 3 h after application) as inter-individual % MPE value. […] The corresponding threshold values are given in gram (mean±SEM).

[2] = target: T1, human recombinant μ-opioid receptor (Homo sapiens, UniProt P35372); experiment: Ki value at the μ-opioid receptor (Experiment 4); format: binding
T1 construct: expressed in transfected cells; host or cells: CHO-K1 cells (membrane preparation)
T1 sequence (P35372 whole entry): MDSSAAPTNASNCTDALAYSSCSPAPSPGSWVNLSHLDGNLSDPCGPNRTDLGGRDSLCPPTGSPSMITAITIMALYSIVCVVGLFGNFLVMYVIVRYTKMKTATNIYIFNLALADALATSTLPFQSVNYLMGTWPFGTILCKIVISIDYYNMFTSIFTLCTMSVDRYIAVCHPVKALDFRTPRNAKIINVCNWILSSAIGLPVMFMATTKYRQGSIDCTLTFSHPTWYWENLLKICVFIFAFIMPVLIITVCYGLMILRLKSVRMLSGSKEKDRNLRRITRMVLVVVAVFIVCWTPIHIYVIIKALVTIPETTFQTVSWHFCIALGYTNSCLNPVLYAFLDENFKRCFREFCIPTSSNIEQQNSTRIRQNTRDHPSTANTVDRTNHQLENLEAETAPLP

[3] = target: T2, vanilloid receptor 1 (VR1/TRPV1) (Homo sapiens, UniProt Q8NER1); experiment: FLIPR capsaicin assay; format: cell-based, human or rat
T2 construct: expressed in transfected cells; host or cells: CHO K1 cells (ECACC), stably transfected
T2 sequence (Q8NER1 whole entry): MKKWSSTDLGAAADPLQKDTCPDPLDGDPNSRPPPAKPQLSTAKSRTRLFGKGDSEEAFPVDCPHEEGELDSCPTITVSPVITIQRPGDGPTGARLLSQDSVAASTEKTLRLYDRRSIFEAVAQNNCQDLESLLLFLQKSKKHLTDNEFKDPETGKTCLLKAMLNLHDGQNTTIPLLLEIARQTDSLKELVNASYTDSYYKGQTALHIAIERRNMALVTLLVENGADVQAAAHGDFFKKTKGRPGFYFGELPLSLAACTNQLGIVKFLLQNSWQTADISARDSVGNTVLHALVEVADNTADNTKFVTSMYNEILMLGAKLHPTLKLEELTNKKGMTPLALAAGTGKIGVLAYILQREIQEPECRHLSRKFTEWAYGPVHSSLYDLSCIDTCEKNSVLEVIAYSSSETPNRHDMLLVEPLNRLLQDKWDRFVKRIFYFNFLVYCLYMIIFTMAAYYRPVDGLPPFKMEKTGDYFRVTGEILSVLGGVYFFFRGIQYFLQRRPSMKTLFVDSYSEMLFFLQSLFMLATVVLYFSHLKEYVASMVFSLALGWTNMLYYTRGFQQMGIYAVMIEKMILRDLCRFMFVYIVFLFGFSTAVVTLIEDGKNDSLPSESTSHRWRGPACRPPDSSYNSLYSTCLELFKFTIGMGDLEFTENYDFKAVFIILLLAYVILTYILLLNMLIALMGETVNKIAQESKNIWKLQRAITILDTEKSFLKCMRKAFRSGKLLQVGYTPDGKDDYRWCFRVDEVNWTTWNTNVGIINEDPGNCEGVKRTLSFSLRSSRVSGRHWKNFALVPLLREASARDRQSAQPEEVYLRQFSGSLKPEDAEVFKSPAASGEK
Text: (§1) The agonist or antagonist effect of substances can be determined at the vanilloid receptor 1 (VR1/TRPV1) of the human and rat species with the assay described below. Accordingly, the Ca^2+ influx through the channel is quantified by means of a Ca^2+-sensitive dye (Fluo-4, Molecular Probes Europe BV, Leiden, The Netherlands) in the fluorescent imaging plate reader (FLIPR, Molecular Devices, Sunnyvale, USA).
(§2) Chinese hamster ovary cells (CHO K1 cells, ECACC, England) are stably transfected with human or rat VR1 cDNA. For functional studies these cells are plated onto poly-D-lysine-coated black 96-hole plates with a clear base (BD Biosciences, Heidelberg, Germany) in a density of 25 000 cells/cavity. The cells are incubated overnight at 37° C. with 5% CO2 in culture medium (nutrient mixture Ham's F12, Gibco Invitrogen GmbH, Karlsruhe, Germany) with 10% vol. FBS (foetal bovine serum, Gibco Invitrogen GmbH, Karlsruhe, Germany) and 18 μg/ml of L-proline (Gibco Invitrogen GmbH, Karlsruhe, Germany). On the following day, the cells are laden with 2 μM Fluo-4 and 0.01% vol. Pluronic F127 (Molecular Probes Europe BV, Leiden, The Netherlands) in HBSS buffer (Hank's buffered saline solution, Gibco Invitrogen GmbH, Karlsruhe, Germany) for 30 min at 37° C. The plates are then washed 3 times in HBSS buffer and after further incubation for 15 minutes at room temperature are placed in the FLIPR for the Ca^2+ measurement. In this case, the Ca^2+-dependent fluorescence is measured before and after the addition of substances (λex=488 nm, λem=540 nm). Quantification occurs as a result of the measurement of the highest fluorescence intensity (FC, fluorescence counts) over time.
The FLIPR protocol consists of 2 substance additions. Test substances (10 μM) are firstly pipetted onto the cells and the Ca^2+ influx is compared to the control (capsaicin 10 μM). This gives the specification in % activation in relation to the Ca^2+ signal after adding 10 μM of capsaicin. After 5 minutes incubation 100 nM of capsaicin are applied and the influx of Ca^2+ likewise determined. Desensitising agonists and antagonists lead to a suppression of the Ca^2+ influx. Inhibition values [%] are calculated in comparison to the maximum achievable inhibition with a saturating concentration of […] or another reference antagonist. The test substance is added in different concentrations to determine the IC50 and functional Ki value ((f)Ki). Triple determinations (n=3) are conducted and these are repeated in at least one further independent experiment (N>=2). A capsaicin dose action curve is generated to incorporate the thus determined EC50 values into the associated (f)Ki determination. EC50/IC50 values are calculated using ‘Prism4’ software from GraphPad Software™ or with XLfit4™ (ID Business Solutions Ltd.). (f)Ki values are calculated in accordance with the modified Cheng-Prusoff equation (Cheng, Prusoff; Biochem. Pharmacol. 22, 3099-3108, 1973). Testing for non-specific inhibition of the fluorescence as a result of the substances is conducted by activating wild type CHO K1 cells incubated with the same test substances with ATP (10 μM final concentration).

human VR1 = target: T3, human VR1 (Homo sapiens, UniProt Q8NER1); experiment: FLIPR pH assay; format: cell-based
T3 construct: expressed in transfected cells; host or cells: CHO K1 cells (ECACC), stably transfected
T3 sequence (Q8NER1 whole entry): as above
Text: as §1, §2
In the pH assay, HBSS that now contains 60 mM MES instead of capsaicin is applied to human VR1-transfected CHO K1 cells (adjusted pH value of the addition solution is 4.95). Percentage inhibition and IC50 values are raised and evaluated as already described for the capsaicin test.

rats = experiment: Tail-flick (hot beam) test in rats; format: in vivo, rat; conditions: dosage 1 mg/kg p.o.
[4] = AMG 517 2.5 mg/kg i.v. group, Control (pre-test 0.5 h before application)
[5] = AMG 517 2.5 mg/kg i.v., 180 min
[6] = Oxycodone 2.5 mg/kg i.v. group, Control (pre-test 0.5 h before application)
[7] = Oxycodone 2.5 mg/kg i.v., 30 min
[8] = Oxycodone 2.5 mg/kg i.v., 60 min
[9] = Oxycodone 2.5 mg/kg i.v., 180 min
[10] = Oxycodone 5 mg/kg i.v. group, Control (pre-test 0.5 h before application)
[11] = Oxycodone 5 mg/kg i.v., 180 min
[12] = functional Ki, capsaicin 100 nM, VR1-transfected CHO K1 cells, modified Cheng-Prusoff, read-out: f(Ki) (VR1)
[13] = human VR1-transfected CHO K1 cells, 60 mM MES, pH 4.95, read-out: IC50 (pH)
[14] = read-out: % inhibition (pH assay)

CC(=O)Nc1nc2c(Oc3cc(-c4ccc(C(F)(F)F)cc4)ncn3)cccc2s1 [AMG 517]
pull-away threshold value, contra-lateral rear paw, mean [1, 4]: 49.9 gram
pull-away threshold value, ipsi-lateral rear paw, mean [1, 4]: 20.6 gram
pull-away threshold value, contra-lateral rear paw, mean ([1]; AMG 517 2.5 mg/kg i.v., 30 min): 50.9 gram
pull-away threshold value, ipsi-lateral rear paw, mean ([1]; AMG 517 2.5 mg/kg i.v., 30 min): 29.2 gram
pull-away threshold value, contra-lateral rear paw, mean ([1]; AMG 517 2.5 mg/kg i.v., 60 min): 49.6 gram
pull-away threshold value, ipsi-lateral rear paw, mean ([1]; AMG 517 2.5 mg/kg i.v., 60 min): 21.1 gram
pull-away threshold value, contra-lateral rear paw, mean [1, 5]: 51.7 gram
pull-away threshold value, ipsi-lateral rear paw, mean [1, 5]: 20.7 gram

COc1ccc2c3c1O[C@H]1C(=O)CC[C@@]4(O)[C@@H](C2)N(C)CC[C@]314 [Oxycodone, oxycodone]
pull-away threshold value, contra-lateral rear paw, mean [1, 6]: 54.0 gram
pull-away threshold value, ipsi-lateral rear paw, mean [1, 6]: 21.0 gram
pull-away threshold value, contra-lateral rear paw, mean [1, 7]: 67.8 gram
pull-away threshold value, ipsi-lateral rear paw, mean [1, 7]: 38.2 gram
pull-away threshold value, contra-lateral rear paw, mean [1, 8]: 53.1 gram
pull-away threshold value, ipsi-lateral rear paw, mean [1, 8]: 28.0 gram
pull-away threshold value, contra-lateral rear paw, mean [1, 9]: 52.5 gram
pull-away threshold value, ipsi-lateral rear paw, mean [1, 9]: 21.9 gram
pull-away threshold value, contra-lateral rear paw, mean [1, 10]: 52.6 gram
pull-away threshold value, ipsi-lateral rear paw, mean [1, 10]: 22.8 gram
pull-away threshold value, contra-lateral rear paw, mean ([1]; Oxycodone 5 mg/kg i.v., 30 min): 70.0 gram
pull-away threshold value, ipsi-lateral rear paw, mean ([1]; Oxycodone 5 mg/kg i.v., 30 min): 41.9 gram
pull-away threshold value, contra-lateral rear paw, mean ([1]; Oxycodone 5 mg/kg i.v., 60 min): 56.4 gram
pull-away threshold value, ipsi-lateral rear paw, mean ([1]; Oxycodone 5 mg/kg i.v., 60 min): 32.1 gram
pull-away threshold value, contra-lateral rear paw, mean [1, 11]: 51.4 gram
pull-away threshold value, ipsi-lateral rear paw, mean [1, 11]: 22.0 gram
efficacy (conclusion) ([1]; combination of two threshold doses of the same opioid, pull away increased on ipsi- and contra-lateral paw): additive antinociceptive efficacy

CC(C(=O)NCc1ccc(C(F)(F)F)nc1N1CCC(c2ccccc2)(N(C)C)CC1)c1ccc(NS(C)(=O)=O)c(F)c1 (centres unmarked) [[1], N-((2-(4-(dimethylamino)-4-phenylpiperidin-1-yl)-6-(trifluoromethyl)pyridin-3-yl)methyl)-2-(3-fluoro-4-(methylsulfonamido)phenyl)propanamide]
Ki [2]: 46 nM
Ki [3, 12]: 31.3 nM
IC50 (human VR1): 806 nM
Tail-Flick [% MPE] (rats): 50%^2) % MPE

CC(C(=O)NCc1ccc(C(C)(C)C)nc1N1CCC(c2ccccc2)(N(C)C)CC1)c1ccc(NS(C)(=O)=O)c(F)c1 (centres unmarked) [[2], N-((6-tert-butyl-2-(4-(dimethylamino)-4-phenylpiperidin-1-yl)pyridin-3-yl)methyl)-2-(3-fluoro-4-(methylsulfonamido)phenyl)propanamide]
Ki [2]: 350 nM
Ki [3]: 3.7 nM
IC50 (human VR1; [13]): 368 nM

CC(C(=O)NCc1ccc(C(F)(F)F)nc1N1CCC(c2cccs2)(N(C)C)CC1)c1ccc(NS(C)(=O)=O)c(F)c1 (centres unmarked) [[3], N-((2-(4-(dimethylamino)-4-(thiophen-2-yl)piperidin-1-yl)-6-(trifluoromethyl)pyridin-3-yl)methyl)-2-(3-fluoro-4-(methylsulfonamido)phenyl)propanamide]
Ki [2]: 119 nM
Ki [3]: 10.9 nM
IC50 (human VR1; [13]): 335 nM

CC(C(=O)NCc1ccc(C(F)(F)F)nc1N1CCC(Cc2ccccc2)(N(C)C)CC1)c1ccc(NS(C)(=O)=O)c(F)c1 (centres unmarked) [[5], N-((2-(4-benzyl-4-(dimethylamino)piperidin-1-yl)-6-(trifluoromethyl)pyridin-3-yl)methyl)-2-(3-fluoro-4-(methylsulfonamido)phenyl)propanamide]
Ki [2]: 715 nM
Ki [3]: 6.3 nM
IC50 (human VR1; [13]): 111 nM

CC(C(=O)NCc1ccc(C(C)(C)C)nc1N1CCC(Cc2ccccc2)(N(C)C)CC1)c1ccc(NS(C)(=O)=O)c(F)c1 (centres unmarked) [[6], N-((2-(4-benzyl-4-(dimethylamino)piperidin-1-yl)-6-tert-butylpyridin-3-yl)methyl)-2-(3-fluoro-4-(methylsulfonamido)phenyl)propanamide]
Ki [2]: 3130 nM
Ki [3]: 2.6 nM
IC50 (human VR1; [13]): 1360 nM

Cc1cc(C(C)C(=O)NCc2ccc(C(F)(F)F)cc2N2CCC(Cc3ccccc3)(N(C)C)CC2)ccc1NS(C)(=O)=O (centres unmarked) [[8], N-(2-(4-benzyl-4-(dimethylamino)piperidin-1-yl)-4-(trifluoromethyl)benzyl)-2-(3-methyl-4-(methylsulfonamido)phenyl)propanamide]
Ki [2]: 22 nM
Ki [3, 12]: 2.5 nM
inhibition at 1 µM (human VR1; [14]): 19%
inhibition at 5 µM (human VR1; [14]): 36%
inhibition at 10 µM (human VR1; [14]): 58%

CC(C(=O)NCc1ccc(C(F)(F)F)nc1N1CCC(Cc2cccc(F)c2)(N(C)C)CC1)c1ccc(NS(C)(=O)=O)c(F)c1 (centres unmarked) [[9], N-((2-(4-(dimethylamino)-4-(3-fluorobenzyl)piperidin-1-yl)-6-(trifluoromethyl)pyridin-3-yl)methyl)-2-(3-fluoro-4-(methylsulfonamido)phenyl)propanamide]
Ki [2]: 2080 nM
Ki [3]: 2.4 nM
IC50 (human VR1; [13]): 145 nM

Cc1cc(C(C)C(=O)NCc2ccc(C(F)(F)F)cc2N2CCC(Cc3cccc(F)c3)(N(C)C)CC2)ccc1NS(C)(=O)=O (centres unmarked) [[11], N-(2-(4-(dimethylamino)-4-(3-fluorobenzyl)piperidin-1-yl)-4-(trifluoromethyl)benzyl)-2-(3-methyl-4-(methylsulfonamido)phenyl)propanamide]
Ki [2]: 50 nM
Ki [3, 12]: 1.6 nM
inhibition at 5 µM (human VR1; [14]): 35%
inhibition at 10 µM (human VR1; [14]): 38%
